Patent publication US7365053B2, “Selective N-acylation of A82846 glygopeptides analogs” (priority 2000, dated 2008)
Values after ≈ are worked out from the molar mass of the structure shown.

Legend:
[1] = tested on: vancomycin-sensitive enterococci; assay: In vitro activity against enterococci, broth microdilution; format: cell-based, Enterococcus faecium and Enterococcus faecalis; conditions: representative vancomycin-sensitive enterococci (E. faecium and E. faecalis); BHI medium
Method: (§1) The compounds of the present invention have in vitro activity against Gram-positive pathogenic bacteria. The antibacterial activity of the present compounds is illustrated in Tables III and IV. The minimal inhibitory concentrations (MICs) were determined using a standard broth micro-dilution assay. Table IV presents a comparison of the activity of illustrative compounds against representative vancomycin-resistant and vancomycin-sensitive enterococci (Enterococcus faecium and Enterococcus faecalis), mean geometric MIC (mcg/mL), as determined by the standard broth microdilution assay.
(§2) Assays for antimicrobial activity were performed using microbroth susceptibility testing methods as described by the NCCLS (National Committee for Clinical Laboratories Standards. 1990. Approved standard M7-A2. Methods for dilution antimicrobial susceptibility testing for bacteria that grow aerobically, 2 ed., Villanova Pa.). Brain-heart infusion medium (BHI) was used for testing of enterococci, and NCCLS recommendations for medium were followed for other bacteria.

[2] = tested on: vancomycin-resistant enterococci; assay: as above; format: cell-based, Enterococcus faecium and Enterococcus faecalis; conditions: representative vancomycin-resistant enterococci (E. faecium and E. faecalis); BHI medium
Method: as §1, §2

[3] = tested on: Haemophilus influenzae RD; assay: Broth micro-dilution MIC; format: cell-based
Method: as §1, §2

[4] = tested on: Staphylococcus epidermidis 270; assay: Broth micro-dilution MIC; format: cell-based
Method: as §1, §2

[5] = tested on: Staphylococcus aureus 489; assay: Broth micro-dilution MIC; format: cell-based
Method: as §1, §2

[6] = tested on: Staphylococcus aureus 447; assay: Broth micro-dilution MIC; format: cell-based
Method: as §1, §2

Enterococcus faecium 180 = assay: Broth micro-dilution MIC; format: cell-based; conditions: BHI medium
Method: as §1, §2

[7] = tested on: Staphylococcus aureus SA1199; assay: Broth micro-dilution MIC; format: cell-based
Method: as §1, §2

[8] = tested on: Staphylococcus aureus SA1199B; assay: Broth micro-dilution MIC; format: cell-based
Method: as §1, §2

[9] = tested on: Staphylococcus aureus 446; assay: Broth micro-dilution MIC; format: cell-based
Method: as §1, §2

Escherichia coli EC14 = assay: Broth micro-dilution MIC; format: cell-based
Method: as §1, §2

[10] = tested on: Enterococcus faecalis 276; assay: Broth micro-dilution MIC; format: cell-based; conditions: BHI medium
Method: as §1, §2

[11] = tested on: Staphylococcus aureus X400; assay: Broth micro-dilution MIC; format: cell-based
Method: as §1, §2

[12] = tested on: Staphylococcus aureus S13E; assay: Broth micro-dilution MIC; format: cell-based
Method: as §1, §2

[13] = tested on: Staphylococcus aureus SA1199A; assay: Broth micro-dilution MIC; format: cell-based
Method: as §1, §2

[14] = tested on: Staphylococcus aureus X778; assay: Broth micro-dilution MIC; format: cell-based
Method: as §1, §2

[15] = tested on: Enterococcus gallinarum 245; assay: Broth micro-dilution MIC; format: cell-based; conditions: BHI medium
Method: as §1, §2

[16] = tested on: Enterococcus faecium 180-1; assay: Broth micro-dilution MIC; format: cell-based; conditions: BHI medium
Method: as §1, §2

[17] = tested on: Staphylococcus haemolyticus 105; assay: Broth micro-dilution MIC; format: cell-based
Method: as §1, §2

[18] = tested on: Enterococcus faecalis 2041; assay: Broth micro-dilution MIC; format: cell-based; conditions: BHI medium
Method: as §1, §2

[19] = tested on: Staphylococcus haemolyticus 415; assay: Broth micro-dilution MIC; format: cell-based
Method: as §1, §2

[20] = tested on: Staphylococcus aureus 491; assay: Broth micro-dilution MIC; format: cell-based
Method: as §1, §2

[21] = tested on: Streptococcus pyogenes C203; assay: Broth micro-dilution MIC; format: cell-based
Method: as §1, §2

[22] = tested on: Streptococcus pneumoniae P1; assay: Broth micro-dilution MIC; format: cell-based
Method: as §1, §2

Row | SMILES | Mean geometric MIC, Vancomycin Sensitive Strains [1] | Mean geometric MIC, Vancomycin Resistant Strains [2] | MIC [3] | MIC [4] | MIC [5] | MIC [6] | MIC (Enterococcus faecium 180) | MIC [7] | MIC [8] | MIC [9] | MIC (Escherichia coli EC14) | MIC [10] | MIC [11] | MIC [12] | MIC [13] | MIC [14] | MIC [15] | MIC [16] | MIC [17] | MIC [18] | other results
1 | CC(C)CC(C(=O)NC1C(=O)NC(CC(N)=O)C(=O)NC2C(=O)NC3C(=O)NC(C(=O)NC(C(=O)O)c4cc(O)cc(O)c4-c4cc3ccc4O)C(OC3CC(C)(N)C(O)C(C)O3)c3ccc(c(Cl)c3)Oc3cc2cc(c3OC2OC(CO)C(O)C(O)C2OC2CC(C)(N)C(O)C(C)O2)Oc2ccc(cc2Cl)C1O)N(C)C(=O)c1ccc(-c2ccccc2)cc1 (stereo not drawn) [Example 3] | 0.19 µg/mL | 4 µg/mL | >64 µg/mL | 2 µg/mL (≈ 1.13 µM) | 0.5 µg/mL (≈ 0.282 µM) | 16 µg/mL (≈ 9.03 µM) | 0.25 µg/mL (≈ 0.141 µM) | 1 µg/mL (≈ 0.564 µM) | 2 µg/mL (≈ 1.13 µM) | 0.5 µg/mL (≈ 0.282 µM) | >64 µg/mL | 0.125 µg/mL (≈ 0.0705 µM) | 0.5 µg/mL (≈ 0.282 µM) | 0.25 µg/mL (≈ 0.141 µM) | 1 µg/mL (≈ 0.564 µM) | 1 µg/mL (≈ 0.564 µM) | 2 µg/mL (≈ 1.13 µM) | ≦.06 μg/ml | 4 µg/mL (≈ 2.26 µM) | ≦.06 μg/ml | MIC [19]: 2 µg/mL (≈ 1.13 µM); MIC [20]: 0.5 µg/mL (≈ 0.282 µM); MIC [21]: ≦.06 μg/ml; MIC [22]: ≦.06 μg/ml
2 | CNC(CC(C)C)C(=O)NC1C(=O)NC(CC(N)=O)C(=O)NC2C(=O)NC3C(=O)NC(C(=O)NC(C(=O)O)c4cc(O)cc(O)c4-c4cc3ccc4O)C(OC3CC(C)(NC(=O)c4ccc(-c5ccccc5)cc4)C(O)C(C)O3)c3ccc(c(Cl)c3)Oc3cc2cc(c3OC2OC(CO)C(O)C(O)C2OC2CC(C)(N)C(O)C(C)O2)Oc2ccc(cc2Cl)C1O (stereo not drawn) [Example 2] | 0.38 µg/mL | >25 µg/mL | >64 µg/mL | 32 µg/mL (≈ 18.1 µM) | 0.5 µg/mL (≈ 0.282 µM) | 32 µg/mL (≈ 18.1 µM) | 32 µg/mL (≈ 18.1 µM) | 4 µg/mL (≈ 2.26 µM) | 2 µg/mL (≈ 1.13 µM) | 8 µg/mL (≈ 4.51 µM) | >64 µg/mL | 1 µg/mL (≈ 0.564 µM) | 2 µg/mL (≈ 1.13 µM) | 4 µg/mL (≈ 2.26 µM) | 1 µg/mL (≈ 0.564 µM) | 2 µg/mL (≈ 1.13 µM) | >64 µg/mL | 1 µg/mL (≈ 0.564 µM) | 2 µg/mL (≈ 1.13 µM) | 1 µg/mL (≈ 0.564 µM) | MIC [19]: >64 µg/mL; MIC [20]: 1 µg/mL (≈ 0.564 µM); MIC [21]: ≦.06 μg/ml; MIC [22]: ≦.06 μg/ml
3 | CCCCCCCC(=O)NC1(C)CC(OC2C(Oc3c4cc5cc3Oc3ccc(cc3Cl)C(OC3CC(C)(N)C(O)C(C)O3)C3NC(=O)C(NC(=O)C5NC(=O)C(CC(N)=O)NC(=O)C(NC(=O)C(CC(C)C)NC)C(O)c5ccc(c(Cl)c5)O4)c4ccc(O)c(c4)-c4c(O)cc(O)cc4C(C(=O)O)NC3=O)OC(CO)C(O)C2O)OC(C)C1O (stereo not drawn) [Example 8, 4′-N-octanoyl-A82846B] | 0.87 µg/mL | 54 µg/mL | 64 µg/mL (≈ 37.2 µM) | 8 µg/mL (≈ 4.65 µM) | 0.25 µg/mL (≈ 0.145 µM) | 8 µg/mL (≈ 4.65 µM) | 2 µg/mL (≈ 1.16 µM) | 2 µg/mL (≈ 1.16 µM) | 2 µg/mL (≈ 1.16 µM) | 2 µg/mL (≈ 1.16 µM) | >64 µg/mL | 0.5 µg/mL (≈ 0.291 µM) | 0.5 µg/mL (≈ 0.291 µM) | 2 µg/mL (≈ 1.16 µM) | 0.25 µg/mL (≈ 0.145 µM) | 1 µg/mL (≈ 0.582 µM) | 16 µg/mL (≈ 9.31 µM) | 0.125 µg/mL (≈ 0.0727 µM) | 0.5 µg/mL (≈ 0.291 µM) | 0.25 µg/mL (≈ 0.145 µM) | MIC [19]: 16 µg/mL (≈ 9.31 µM); MIC [20]: 0.25 µg/mL (≈ 0.145 µM); MIC [21]: ≦.06 μg/ml; MIC [22]: ≦.06 μg/ml
4 | CCCCCCCCOc1ccc(C(=O)NC2(C)CC(OC3C(Oc4c5cc6cc4Oc4ccc(cc4Cl)C(OC4CC(C)(N)C(O)C(C)O4)C4NC(=O)C(NC(=O)C6NC(=O)C(CC(N)=O)NC(=O)C(NC(=O)C(CC(C)C)NC)C(O)c6ccc(c(Cl)c6)O5)c5ccc(O)c(c5)-c5c(O)cc(O)cc5C(C(=O)O)NC4=O)OC(CO)C(O)C3O)OC(C)C2O)cc1 (stereo not drawn) [Example 6] | 1.2 µg/mL | 11.3 µg/mL | >64 µg/mL | 8 µg/mL (≈ 4.38 µM) | 1 µg/mL (≈ 0.548 µM) | 8 µg/mL (≈ 4.38 µM) | 0.25 µg/mL (≈ 0.137 µM) | 4 µg/mL (≈ 2.19 µM) | 2 µg/mL (≈ 1.1 µM) | 2 µg/mL (≈ 1.1 µM) | >64 µg/mL | 1 µg/mL (≈ 0.548 µM) | 4 µg/mL (≈ 2.19 µM) | 8 µg/mL (≈ 4.38 µM) | 0.25 µg/mL (≈ 0.137 µM) | 2 µg/mL (≈ 1.1 µM) | 8 µg/mL (≈ 4.38 µM) | 0.125 µg/mL (≈ 0.0685 µM) | 0.5 µg/mL (≈ 0.274 µM) | 0.25 µg/mL (≈ 0.137 µM) | MIC [19]: 8 µg/mL (≈ 4.38 µM); MIC [20]: 2 µg/mL (≈ 1.1 µM); MIC [21]: 0.125 µg/mL (≈ 0.0685 µM); MIC [22]: 0.25 µg/mL (≈ 0.137 µM)
5 | CNC(CC(C)C)C(=O)NC1C(=O)NC(CC(N)=O)C(=O)NC2C(=O)NC3C(=O)NC(C(=O)NC(C(=O)O)c4cc(O)cc(O)c4-c4cc3ccc4O)C(OC3CC(C)(N)C(O)C(C)O3)c3ccc(c(Cl)c3)Oc3cc2cc(c3OC2OC(CO)C(O)C(O)C2OC2CC(C)(NC(=O)c3ccc(-c4ccc(Cl)cc4)cc3)C(O)C(C)O2)Oc2ccc(cc2Cl)C1O (stereo not drawn) [Example 4] | 0.093 µg/mL | 3.4 µg/mL | 0.25 µg/mL (≈ 0.138 µM) | 2 µg/mL (≈ 1.11 µM) | 0.25 µg/mL (≈ 0.138 µM) | 4 µg/mL (≈ 2.21 µM) | ≦.06 μg/ml | 0.5 µg/mL (≈ 0.277 µM) | 0.5 µg/mL (≈ 0.277 µM) | 1 µg/mL (≈ 0.553 µM) | >64 µg/mL | 0.125 µg/mL (≈ 0.0692 µM) | 0.25 µg/mL (≈ 0.138 µM) | 0.5 µg/mL (≈ 0.277 µM) | 0.25 µg/mL (≈ 0.138 µM) | 0.25 µg/mL (≈ 0.138 µM) | 4 µg/mL (≈ 2.21 µM) | ≦.06 μg/ml | 1 µg/mL (≈ 0.553 µM) | ≦.06 μg/ml | MIC [19]: 4 µg/mL (≈ 2.21 µM); MIC [20]: 0.5 µg/mL (≈ 0.277 µM); MIC [21]: 0.125 µg/mL (≈ 0.0692 µM); MIC [22]: 0.125 µg/mL (≈ 0.0692 µM)
6 | CNC(CC(C)C)C(=O)NC1C(=O)NC(CC(N)=O)C(=O)NC2C(=O)NC3C(=O)NC(C(=O)NC(C(=O)O)c4cc(O)cc(O)c4-c4cc3ccc4O)C(OC3CC(C)(NC(=O)c4ccc(-c5ccc(Cl)cc5)cc4)C(O)C(C)O3)c3ccc(c(Cl)c3)Oc3cc2cc(c3OC2OC(CO)C(O)C(O)C2OC2CC(C)(N)C(O)C(C)O2)Oc2ccc(cc2Cl)C1O (stereo not drawn) [Example 5] | 0.29 µg/mL | 19 µg/mL | >64 µg/mL | 4 µg/mL (≈ 2.21 µM) | ≦.06 μg/ml | 2 µg/mL (≈ 1.11 µM) | 1 µg/mL (≈ 0.553 µM) | 0.5 µg/mL (≈ 0.277 µM) | 0.25 µg/mL (≈ 0.138 µM) | 0.5 µg/mL (≈ 0.277 µM) | >64 µg/mL | ≦.06 μg/ml | ≦.06 μg/ml | 0.5 µg/mL (≈ 0.277 µM) | ≦.06 μg/ml | 0.5 µg/mL (≈ 0.277 µM) | 8 µg/mL (≈ 4.43 µM) | ≦.06 μg/ml | 0.5 µg/mL (≈ 0.277 µM) | ≦.06 μg/ml | MIC [19]: 8 µg/mL (≈ 4.43 µM); MIC [20]: ≦.06 μg/ml; MIC [21]: ≦.06 μg/ml; MIC [22]: ≦.06 μg/ml
